The target in experiment [1] is Btk (Homo sapiens, UniProt Q06187). As to the kind of experiment: Btk in vitro inhibitory activity, acellular TR-FRET kinase assay. Further: 1 µM peptide substrate. Type of experiment: biochemical. The following applies: read-out: Btk IC50 (Efficacy). As to the method:
Btk kinase activity was determined using a time-resolved fluorescence resonance energy transfer (TR-FRET) methodology. Measurements were performed in a reaction volume of 50 μL using 96-well assay plates. […] The TR-FRET signal was measured on a multimode plate reader with an excitation wavelength (λEx) of 330 nm and detection wavelengths (λEm) of 615 and 665 nm. Activity was determined by the ratio of the fluorescence at 665 nm to that at 615 nm. For each compound, enzyme activity was measured at various concentrations of compound. Negative control reactions were performed in the absence of inhibitor in replicates of six, and two no-enzyme controls were used to determine baseline fluorescence levels. IC50s were obtained using the program Batch Ki (Kuzmic et al. (2000), Anal. Biochem. 286:45-50).
On the technique in general: TR-FRET usually uses a lanthanide donor and a delayed reading to cut background.

Experiment [2] concerns rat basophilic leukemia cells (RBL-2H3). The following applies: mast cells treated with Btk inhibitor; cited from earlier work.

A value given as a limit tells only on which side of the number the result lay.

Chain of Btk (Q06187 whole entry): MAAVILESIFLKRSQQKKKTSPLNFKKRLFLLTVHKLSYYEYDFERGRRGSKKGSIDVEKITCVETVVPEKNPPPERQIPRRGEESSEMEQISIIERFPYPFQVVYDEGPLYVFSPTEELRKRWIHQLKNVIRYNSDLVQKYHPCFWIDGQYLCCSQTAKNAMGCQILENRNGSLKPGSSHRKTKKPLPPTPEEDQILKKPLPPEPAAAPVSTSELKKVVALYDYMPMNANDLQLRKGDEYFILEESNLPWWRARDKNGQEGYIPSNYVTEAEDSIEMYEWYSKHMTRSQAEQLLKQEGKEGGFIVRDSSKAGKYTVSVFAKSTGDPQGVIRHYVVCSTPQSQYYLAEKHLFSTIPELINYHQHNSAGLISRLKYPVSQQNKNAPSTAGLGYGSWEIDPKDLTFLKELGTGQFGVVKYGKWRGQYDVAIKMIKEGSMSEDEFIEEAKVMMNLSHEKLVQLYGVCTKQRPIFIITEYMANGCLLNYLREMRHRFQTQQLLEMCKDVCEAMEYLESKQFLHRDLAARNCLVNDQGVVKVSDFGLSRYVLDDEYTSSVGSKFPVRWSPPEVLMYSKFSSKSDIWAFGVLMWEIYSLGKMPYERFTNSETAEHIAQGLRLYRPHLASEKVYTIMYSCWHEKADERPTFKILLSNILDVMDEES

The term IC50 denotes the concentration that gives 50% inhibition. On to `Cc1ccc(NC(=O)c2cccc(Cl)c2)cc1C(=O)Nc1cnc(Nc2cccc(N)c2)nc1` [Example 27], for which the IC50 in experiment [1] is less than 100 nM.
The same measure, in the same setting: the result for `C=CC(=O)Nc1cccc(Nc2ncc(NC(=O)c3cc(NC(=O)c4cccc(F)c4)ccc3C)cn2)c1` [Example 16] reads less than 100 nM; that for `C=CC(=O)Nc1cccc(Nc2ncc(NC(=O)c3cccc(NC(=O)c4cccc(C(F)(F)F)c4)c3)cn2)c1` [Example 8], less than 100 nM.
For the molecule `COc1cc(OC)cc(C(=O)Nc2ccc(C)c(C(=O)Nc3cnc(Nc4cccc(N)c4)nc3)c2)c1` [Example 24], the IC50 in experiment [1] is less than 100 nM.
Take `Cc1ccc(NC(=O)c2ccc3ccccc3c2)cc1C(=O)Nc1cnc(Nc2cccc(N)c2)nc1` [Example 23]: in experiment [1], the IC50 is less than 100 nM.
The same measure, in the same setting: the figure for `C=CC(=O)Nc1cccc(Nc2ncc(NC(=O)c3cc(NC(=O)c4cccc(C(F)(F)F)c4)ccc3Cl)cn2)c1` [Example 6] is less than 100 nM; for `Cc1ccc(NC(=O)/C=C/c2ccccc2)cc1C(=O)Nc1cnc(Nc2cccc(N)c2)nc1` [Example 37] it is 100 to 1000 nM; for `Cc1ccc(NC(=O)c2cccc(N(C)C)c2)cc1C(=O)Nc1cnc(Nc2cccc(N)c2)nc1` [Example 30] it is less than 100 nM.
The same measure, in the same setting: the result for `Cc1ccc(NC(=O)c2cc(Cl)cc(C(F)(F)F)c2)cc1C(=O)Nc1cnc(Nc2cccc(N)c2)nc1` [Example 21] reads less than 100 nM; that for `C=CC(=O)Nc1cccc(Nc2ncc(NC(=O)c3cc(NC(=O)CC)ccc3C)cn2)c1` [Example 10], 100 to 1000 nM; that for `Cc1ccc(NC(=O)c2cccc(F)c2)cc1C(=O)Nc1cnc(Nc2cccc(N)c2)nc1` [Example 28], 100 to 1000 nM.
The same measure, in the same setting: the result for `C=CC(=O)Nc1cccc(Nc2ncc(NC(=O)c3cc(NC(=O)c4cccc(N(C)C)c4)ccc3C)cn2)c1` [Example 18] reads less than 100 nM; that for `Nc1cccc(Nc2ncc(NC(=O)c3cc(NC(=O)c4cccc(C(F)(F)F)c4)ccc3Cl)cn2)c1` [Example 33], less than 100 nM.
Regarding `CCC(=O)Nc1ccc(C)c(C(=O)Nc2cnc(Nc3cccc(N)c3)nc2)c1` [Example 22], in experiment [1], the IC50 is 1000 to 10000 nM.
`C=CC(=O)Nc1cccc(Nc2ncc(NC(=O)c3cc(NC(=O)c4cnoc4C)ccc3C)cn2)c1` [Example 17]: the IC50 in experiment [1] is 100 to 1000 nM.
For the molecule `Cc1ccc(NC(=O)c2cnoc2C)cc1C(=O)Nc1cnc(Nc2cccc(N)c2)nc1` [Example 29], in experiment [1], the half-inhibitory concentration (IC50) lay in the range of 100 to 1000 nM.
The same measure, in the same setting: the figure for `Nc1cccc(Nc2ncc(NC(=O)c3cc(NC(=O)c4cccc(C(F)(F)F)c4)ccc3F)cn2)c1` [Example 34] is less than 100 nM.
Still for that read-out and setting: the result for `C=CC(=O)Nc1cccc(Nc2ncc(NC(=O)c3cc(NC(=O)c4ccc5ccccc5c4)ccc3C)cn2)c1` [Example 11] reads less than 100 nM; that for `C/C=C/C(=O)Nc1cccc(Nc2ncc(NC(=O)c3cc(NC(=O)c4cccc(C(F)(F)F)c4)ccc3C)cn2)c1` [Example 2], less than 100 nM; that for `C=CC(=O)Nc1cccc(Nc2ncc(NC(=O)c3cc(NC(=O)c4cccc(Cl)c4)ccc3C)cn2)c1` [Example 15], less than 100 nM.
The same measure, in the same setting: the result for `C=CC(=O)Nc1cccc(Nc2ncc(NC(=O)c3cc(NC(=O)c4ccc5c(c4)OC(F)(F)O5)ccc3C)cn2)c1` [Example 13] reads less than 100 nM; that for `C=CC(=O)Nc1cccc(Nc2ncc(NC(=O)c3ccccc3C)cn2)c1` [Example 9], less than 100 nM.
On to `Cc1ccc(NC(=O)c2cccc(C(F)(F)F)c2)cc1C(=O)Nc1cnc(Nc2cccc(N)c2)nc1` [Example 20], for which, in experiment [1], the half-maximal inhibitory concentration (IC50) is less than 100 nM.
Still for that read-out and setting: the figure for `Nc1cccc(Nc2ncc(NC(=O)c3cccc(NC(=O)c4cccc(C(F)(F)F)c4)c3)cn2)c1` [Example 32] is 100 to 1000 nM; for `Cc1ccc(NC(=O)C2CC2)cc1C(=O)Nc1cnc(Nc2cccc(N)c2)nc1` [Example 31] it is 1000 to 10000 nM.
Same read-out and setting: the result for `Cc1ccc(NC(=O)c2ccc(C(F)(F)F)cc2)cc1C(=O)Nc1cnc(Nc2cccc(N)c2)nc1` [Example 26] reads less than 100 nM; that for `C=CC(=O)Nc1cccc(Nc2ncc(NC(=O)c3cc(NC(=O)c4ccc(C(F)(F)F)cc4)ccc3C)cn2)c1` [Example 14], less than 100 nM; that for `C=CC(=O)Nc1cccc(Nc2ncc(NC(=O)c3cc(NC(=O)C4CC4)ccc3C)cn2)c1` [Example 19], 100 to 1000 nM.
The same measure, in the same setting: the result for `C=CC(=O)NCC(=O)Nc1cccc(Nc2ncc(NC(=O)c3cc(NC(=O)c4cccc(C(F)(F)F)c4)ccc3C)cn2)c1` [Example 4] reads less than 100 nM.
`Cc1ccc(NC(=O)Nc2cccc(C(F)(F)F)c2)cc1C(=O)Nc1cnc(Nc2cccc(N)c2)nc1` [Example 35]: the IC50 in experiment [1] was less than 100 nM.
On to `C/C(O)=C(\C#N)C(=O)Nc1cc(Br)ccc1Br` [LFM-A13], for which, in experiment [2], the “release of histamine reduced” value is listed as 20-25%.
As for `C=CC(=O)N(C(=O)C=C)c1cccc(Nc2ncc(NC(=O)c3cc(NC(=O)c4cccc(C(F)(F)F)c4)ccc3C)cn2)c1` [Example 5], the IC50 in experiment [1] was in the range of 100 to 1000 nM.
Still for that read-out and setting: the result for `C=CC(=O)Nc1cccc(Nc2ncc(NC(=O)c3cc(NC(=O)c4cccc(C(F)(F)F)c4)ccc3F)cn2)c1` [Example 7] reads less than 100 nM; that for `C=CC(=O)Nc1cccc(Nc2ncc(NC(=O)c3cc(NC(=O)c4cc(OC)cc(OC)c4)ccc3C)cn2)c1` [Example 12], less than 100 nM; that for `C=CS(=O)(=O)Nc1cccc(Nc2ncc(NC(=O)c3cc(NC(=O)c4cccc(C(F)(F)F)c4)ccc3C)cn2)c1` [Example 3], less than 100 nM.
The same measure, in the same setting: the result for `Cc1ccc(NC(=O)c2ccc3c(c2)OC(F)(F)O3)cc1C(=O)Nc1cnc(Nc2cccc(N)c2)nc1` [Example 25] reads less than 100 nM.

The values above are taken from patent publication US9782406B2, “Kinase inhibitor and method for treatment of related diseases” (PEKING UNIVERSITY SHENZHEN GRADUATE SCHOOL, priority 2011, dated 2017).
